Measurements as given in patent EP1832655A2, “Methods for detecting and reversing resistance to macrocyclic lactone compounds” (priority 1997, dated 1998).

What was measured:
Assay type in all cases: in vivo
[1] = system: H. contortus susceptible (PF14) strain; assay: Efficacy of verapamil with or without ivermectin in jirds, susceptible strain; settings: for % EFFICACY: SUSCEPTIBLE (PF14) strain in jirds, oral, VRP 20 mg/kg, IVM 0.024 mg/kg
Protocol: (§1) Jirds, which are fed on a standard commercial ration to which 0.02% hydrocortisone has been added 5 days prior to infection, are inoculated with 1000 exsheathed L3 H. contortus. On day 10 after inoculation, the jirds are treated with either water or various doses of moxidectin or ivermectin orally. Each treatment group contains 6 jirds. Probit analyses are used to estimate LD50 levels for each anthelmintic against each strain.
(§2) H. contortus. Verapamil is given concomitantly with ivermectin by the oral route. Table 3. DEM[…] H. contortus […] OR S[…] IN JIRDS (n = # per group)

[2] = system: H. contortus moxidectin-resistant (MOF14) strain; assay: Efficacy of verapamil with or without ivermectin in jirds, moxidectin resistant strain; settings: for % EFFICACY: MOX-RESISTANT (MOF14) strain in jirds, oral, VRP 20 mg/kg, IVM 0.046 mg/kg
Protocol: as §1, §2

[3] = system: MOXIDECTIN-RESISTANT STRAIN OF H. contortus (MOF14); assay: Effect of verapamil on efficacy of moxidectin and ivermectin in jirds, moxidectin-resistant strain; settings: for EFFICACY (%) / WORM COUNTS (MEAN ± S.E.): MOF14 in jirds, 7 jirds/group, oral, MOX 0.017 mg/kg, IVM 0.028 mg/kg, VRP 20 mg/kg
[4] = verapamil 20 mg/kg, resistant worms in jirds (Example 8)

| Compound | % EFFICACY [1] [%] | % EFFICACY [2] [%] | EFFICACY (%) [3] [%] | WORM COUNTS (MEAN ± S.E.) [3] | effect on worm counts ([1]; verapamil alone, 20 to 80 mg/kg oral, jirds infected with susceptible or moxidectin resistant H. contortus) | effect of verapamil on the efficacy of ivermectin ([2]; verapamil 20 mg/kg, moxidectin resistant worms in jirds (Example 7)) | effect of verapamil on the efficacy of moxidectin [3, 4] | increase in efficacy when verapamil is coadministered with ivermectin [3, 4] |
| --- | --- | --- | --- | --- | --- | --- | --- | --- |
| 22,23-dihydroavermectin B1 [ivermectin] | 54 | 79 | 80 | 9 ± 1 | – | – | – | – |
| CO/N=C1\C[C@]2(C[C@@H]3C[C@@H](C/C=C(\C)C[C@@H](C)/C=C/C=C4\CO[C@@H]5[C@H](O)C(C)=C[C@@H](C(=O)O3)[C@]45O)O2)O[C@H](/C(C)=C/C(C)C)[C@H]1C [moxidectin, 23-(O-methyloxime)-LL-F28249α] | – | – | 70 | 14 ± 3 | – | – | – | – |
| COc1ccc(CCN(C)CCCC(C#N)(c2ccc(OC)c(OC)c2)C(C)C)cc1OC (centres unmarked) [verapamil] | 17 | -53 | -73 | 80 ± 9 | no significant effect on worm counts | significantly enhances the efficacy of ivermectin | significantly increases the efficacy of moxidectin | not significant |
